The target of data set [1] is polo-like kinase 1 (PLK1) (Homo sapiens, UniProt P53350). Conditions: cited from earlier work.
A short description of data set [2]: Gravimetric vapour sorption (GVS/DVS) hygroscopicity. The data set is classed as physicochemical. Conditions: for Hygroscopicity classification: weight increase from 40-80% RH (25° C.), classes of Table 9, monohydrate. On the procedure:
Sorption isotherms were obtained using a Hiden Isochema moisture sorption analyser (model IGAsorp), controlled by IGAsorp Systems Software V6.50.48. The sample was maintained at a constant temperature (25° C.) by the instrument controls. The humidity was controlled by mixing streams of dry and wet nitrogen, with a total flow of 250 ml·min^−1. The instrument was verified for relative humidity content by measuring three calibrated Rotronic salt solutions (10-50-88%). The weight change of the sample was monitored as a function of humidity by a microbalance (accuracy+/−0.005 mg). A defined amount of sample was placed in a tared mesh stainless steel basket under ambient conditions. A full experimental cycle typically consisted of three scans (sorption, desorption and sorption) at a constant temperature (25° C.) and 10% RH intervals over a 0-90% range (60 minutes for each humidity level).

Structures can show the parent of a compound that is named as a salt. Where two headings read alike, the source gives them in different places.

Sequence of polo-like kinase 1 (PLK1) (P53350 whole entry): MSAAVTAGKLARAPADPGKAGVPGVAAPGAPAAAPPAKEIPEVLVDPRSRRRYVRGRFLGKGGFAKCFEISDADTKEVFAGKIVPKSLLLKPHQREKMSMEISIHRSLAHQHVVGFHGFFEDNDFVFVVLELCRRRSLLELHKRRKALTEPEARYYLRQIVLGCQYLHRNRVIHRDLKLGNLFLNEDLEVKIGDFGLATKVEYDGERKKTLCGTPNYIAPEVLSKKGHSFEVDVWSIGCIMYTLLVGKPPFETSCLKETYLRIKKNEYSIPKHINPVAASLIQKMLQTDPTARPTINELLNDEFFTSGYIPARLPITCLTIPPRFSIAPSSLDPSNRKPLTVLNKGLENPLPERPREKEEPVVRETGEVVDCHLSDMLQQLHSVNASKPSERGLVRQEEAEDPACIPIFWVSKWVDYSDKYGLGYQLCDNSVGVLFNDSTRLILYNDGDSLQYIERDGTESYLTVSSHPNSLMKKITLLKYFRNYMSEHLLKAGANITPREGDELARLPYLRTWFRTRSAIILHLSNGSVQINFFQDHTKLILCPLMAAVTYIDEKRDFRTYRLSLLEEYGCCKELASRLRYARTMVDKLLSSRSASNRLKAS

As to `COc1cc(C(=O)N[C@H]2CC[C@H](N3CCN(C)CC3)CC2)ccc1Nc1ncc2c(n1)N(C1CCCC1)CC1(CC1)C(=O)N2C` [Compound (I), 4-(9′-cyclopentyl-5″-methyl-6′-oxo-5′,6′,8′,9′-tetrahydrospiro[cyclopropane-1,7′-pyrimido[4,5-b][1,4]diazepine]-2′-ylamino)-N((trans)-4-(4-methylpiperazin-1-yl)cyclohexyl)-3-methoxybenzamide], the “Inhibition of PLK1 (in words)” value in data set [1] is given as “potent inhibitory activity”; in data set [1] (listed as compound (I)) it was “potent inhibitor”.
On to `COc1cc(C(=O)N[C@H]2CC[C@H](N3CCN(C)CC3)CC2)ccc1Nc1ncc2c(n1)N(C1CCCC1)CC1(CC1)C(=O)N2C` [Monohydrochloride monohydrate], for which, in data set [2], the “Hygroscopicity (in words)” value is “relatively low hygroscopicity”; the “Stability of the crystalline form (in words)” value is “stable crystalline form”; the Hygroscopicity classification entry was “Slightly hygroscopic (≥0.2% and <2%)”. Also, the “Weight change (%) from 40 to 80% RH @25° C. (sorption cycle by GVS)” value in data set [2] (40-80% RH, 25° C., sorption cycle) was “+0.9%”. In addition, the Hygroscopicity classification entry in data set [2] (listed as monohydrochloride monohydrate salt) is “slightly hygroscopic”.

Source of the values: US12534466B2, “Crystalline forms of pyrimidino diazepine derivative” (CYCLACEL LIMITED, priority 2019, dated 2026).
